PubChem BioAssay AID256 (DTP/NCI, 2004)
Toxic doses and inconclusive results are not listed. Rule for the calls: active = survival T/C of 150% or more; inactive = T/C below 125% in these data.

Tested on: CD2F1 mice, L1210 leukemia ip, survival T/C
Assay: NCI In Vivo Anticancer Drug Screen. Data for tumor model L1210 Leukemia (intraperitoneal) in CD2F1 (CDF1) mice
Settings: higher = longer survival
Summary of the method: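 Activity against a transplanted murine tumor was judged by comparing the compound group with a vehicle group. The outcome in the treated animals was divided by that in the controls.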

[1] = endpoint: mean survival time, dose: 100.0 mg/kg/injection, schedule: Q01DX009 (ip), vehicle: saline with Tween-80
[2] = endpoint: mean survival time, dose: 200.0 mg/kg/injection, schedule: Q01DX009 (ip), vehicle: saline with Tween-80
[3] = endpoint: mean survival time, dose: 100.0 mg/kg/injection, schedule: Q04DX003 (ip), vehicle: Klucel (hydroxypropylcellulose) (HPC)
[4] = endpoint: mean survival time, dose: 200.0 mg/kg/injection, schedule: Q04DX003 (ip), vehicle: Klucel (hydroxypropylcellulose) (HPC)
[5] = endpoint: mean survival time, dose: 100.0 mg/kg/injection, schedule: Q04DX003 (ip), vehicle: saline with Tween-80
[6] = endpoint: mean survival time, dose: 200.0 mg/kg/injection, schedule: Q04DX003 (ip), vehicle: saline with Tween-80
[7] = endpoint: mean survival time, dose: 400.0 mg/kg/injection, schedule: Q04DX003 (ip), vehicle: saline with Tween-80
[8] = endpoint: mean survival time, dose: 100.0 mg/kg/injection, schedule: Q04DX003 (ip), vehicle: saline
[9] = endpoint: mean survival time, dose: 200.0 mg/kg/injection, schedule: Q04DX003 (ip), vehicle: saline
[10] = endpoint: mean survival time, dose: 400.0 mg/kg/injection, schedule: Q04DX003 (ip), vehicle: saline

Measured: T/C

COc1ccc([I+]c2cccc(Cl)c2)cc1Cl
inactive: endpoint: mean survival time, dose: 0.37 mg/kg/injection, schedule: Q01DX009 (ip), vehicle: saline with Tween-80 97 % of control | endpoint: mean survival time, dose: 0.75 mg/kg/injection, schedule: Q01DX009 (ip), vehicle: saline with Tween-80 107 % of control | endpoint: mean survival time, dose: 1.5 mg/kg/injection, schedule: Q01DX009 (ip), vehicle: saline with Tween-80 98 % of control | endpoint: mean survival time, dose: 3.0 mg/kg/injection, schedule: Q01DX009 (ip), vehicle: saline with Tween-80 110 % of control | endpoint: mean survival time, dose: 6.0 mg/kg/injection, schedule: Q01DX009 (ip), vehicle: saline with Tween-80 107 % of control | endpoint: mean survival time, dose: 12.0 mg/kg/injection, schedule: Q01DX009 (ip), vehicle: saline with Tween-80 109 % of control | endpoint: median survival time, dose: 12.5 mg/kg/injection, schedule: Q01DX009 (ip), vehicle: saline with Tween-80 116 % of control | endpoint: median survival time, dose: 25.0 mg/kg/injection, schedule: Q01DX009 (ip), vehicle: saline with Tween-80 116 % of control

CC1C=COCCO1 (stereo unspecified) (tested in a mixture with another compound)
inactive: endpoint: mean survival time, dose: 100.0 mg/kg/injection, schedule: Q04DX003 (ip), vehicle: acetone 97 % of control | endpoint: mean survival time, dose: 200.0 mg/kg/injection, schedule: Q04DX003 (ip), vehicle: acetone 98 % of control | endpoint: mean survival time, dose: 400.0 mg/kg/injection, schedule: Q04DX003 (ip), vehicle: acetone 98 % of control

O=C(CSCC(=O)c1ccc(Br)cc1)c1ccc(Br)cc1
inactive: endpoint: mean survival time, dose: 100.0 mg/kg/injection, schedule: Q01DX001 (ip), vehicle: saline 112 % of control | endpoint: mean survival time, dose: 200.0 mg/kg/injection, schedule: Q01DX001 (ip), vehicle: saline 98 % of control | endpoint: mean survival time, dose: 400.0 mg/kg/injection, schedule: Q01DX001 (ip), vehicle: saline 101 % of control

CCCN(N=O)C(=O)Nc1ccc(C2CC(=O)N(C)C2=O)cc1 (stereo unspecified)
inactive: endpoint: mean survival time, dose: 12.5 mg/kg/injection, schedule: Q01DX001 (ip), vehicle: distilled water + Tween-80 112 % of control | endpoint: mean survival time, dose: 25.0 mg/kg/injection, schedule: Q01DX001 (ip), vehicle: distilled water + Tween-80 111 % of control | endpoint: mean survival time, dose: 50.0 mg/kg/injection, schedule: Q01DX001 (ip), vehicle: distilled water + Tween-80 109 % of control | endpoint: mean survival time, dose: 100.0 mg/kg/injection, schedule: Q01DX001 (ip), vehicle: distilled water + Tween-80 101 % of control | endpoint: mean survival time, dose: 200.0 mg/kg/injection, schedule: Q01DX001 (ip), vehicle: distilled water + Tween-80 107 % of control

O=C1Cc2ccccc2O1
inactive: endpoint: mean survival time, dose: 25.0 mg/kg/injection, schedule: Q01DX009 (ip), vehicle: saline 93 % of control | endpoint: mean survival time, dose: 50.0 mg/kg/injection, schedule: Q01DX009 (ip), vehicle: saline 96 % of control | endpoint: mean survival time, dose: 100.0 mg/kg/injection, schedule: Q01DX009 (ip), vehicle: saline 100 % of control | endpoint: mean survival time, dose: 200.0 mg/kg/injection, schedule: Q01DX009 (ip), vehicle: saline 97 % of control

COc1ccc(NC(=O)Nc2ccc(C)cc2C)cc1
inactive: [1] 86 % of control | [2] 88 % of control

[Cl][Pt+2][Cl].c1ccc(CC2CC[N-]CC2)cc1.c1ccc(CC2CC[N-]CC2)cc1
inactive: endpoint: mean survival time, dose: 50.0 mg/kg/injection, schedule: Q01DX001 (ip), vehicle: saline with Tween-80 96 % of control | endpoint: mean survival time, dose: 100.0 mg/kg/injection, schedule: Q01DX001 (ip), vehicle: saline with Tween-80 96 % of control | endpoint: mean survival time, dose: 200.0 mg/kg/injection, schedule: Q01DX001 (ip), vehicle: saline with Tween-80 90 % of control

CCCCCC(C(O)C#N)C(O)(C(F)(F)F)C(F)(F)F (stereo unspecified)
inactive: [3] 96 % of control | [4] 96 % of control | endpoint: mean survival time, dose: 400.0 mg/kg/injection, schedule: Q04DX003 (ip), vehicle: Klucel (hydroxypropylcellulose) (HPC) 90 % of control

O=C(O)c1ccccc1C(=O)OCC(c1ccccc1)c1ccccc1
inactive: [5] 97 % of control | [6] 89 % of control

CC(C)(C)c1ccc(OC(=S)c2ccccc2)cc1
inactive: endpoint: mean survival time, dose: 100.0 mg/kg/injection, schedule: Q04DX002 (ip), vehicle: saline with Tween-80 104 % of control | endpoint: mean survival time, dose: 200.0 mg/kg/injection, schedule: Q04DX002 (ip), vehicle: saline with Tween-80 89 % of control | endpoint: mean survival time, dose: 400.0 mg/kg/injection, schedule: Q04DX002 (ip), vehicle: saline with Tween-80 89 % of control

CCC12CC(Br)C(C1)OC2=O (stereo unspecified)
inactive: endpoint: mean survival time, dose: 100.0 mg/kg/injection, schedule: Q01DX009 (ip), vehicle: other 96 % of control | endpoint: mean survival time, dose: 200.0 mg/kg/injection, schedule: Q01DX009 (ip), vehicle: other 101 % of control | endpoint: mean survival time, dose: 400.0 mg/kg/injection, schedule: Q01DX009 (ip), vehicle: other 100 % of control

OCC1OC(n2ncc3c(N/N=C/c4ccc(N(CCCl)CCCl)cc4)ncnc32)C(O)C1O (stereo unspecified)
inactive: endpoint: mean survival time, dose: 25.0 mg/kg/injection, schedule: Q01DX009 (ip), vehicle: saline with Tween-80 102 % of control | endpoint: mean survival time, dose: 50.0 mg/kg/injection, schedule: Q01DX009 (ip), vehicle: saline with Tween-80 93 % of control | [1] 102 % of control | [2] 89 % of control | endpoint: mean survival time, dose: 400.0 mg/kg/injection, schedule: Q01DX009 (ip), vehicle: saline with Tween-80 93 % of control

Oc1ccc(C(O)(c2ccccc2)c2ccc(O)c3ccccc23)c2ccccc12
inactive: [5] 102 % of control | [6] 96 % of control | [7] 103 % of control

CN(C)P(=O)(OP(=O)(N(C)C)N(C)C)N(C)C
inactive: endpoint: mean survival time, dose: 2.0 mg/kg/injection, schedule: Q04DX003 (ip), vehicle: saline 102 % of control | endpoint: mean survival time, dose: 4.0 mg/kg/injection, schedule: Q04DX003 (ip), vehicle: saline 98 % of control | endpoint: mean survival time, dose: 8.0 mg/kg/injection, schedule: Q04DX003 (ip), vehicle: saline 100 % of control

CCCCCCC[CH2][Sn]1([CH2]CCCCCCC)[O]C2C(CO)OC(n3ccc(=O)[nH]c3=O)C2[O]1 (stereo unspecified)
inactive: endpoint: mean survival time, dose: 12.5 mg/kg/injection, schedule: Q01DX005 (ip), vehicle: other 100 % of control | endpoint: mean survival time, dose: 25.0 mg/kg/injection, schedule: Q01DX005 (ip), vehicle: other 90 % of control | endpoint: mean survival time, dose: 50.0 mg/kg/injection, schedule: Q01DX005 (ip), vehicle: other 91 % of control | endpoint: mean survival time, dose: 100.0 mg/kg/injection, schedule: Q01DX005 (ip), vehicle: other 94 % of control | endpoint: mean survival time, dose: 200.0 mg/kg/injection, schedule: Q01DX005 (ip), vehicle: other 91 % of control

C[N+](C)(CC(=O)O)c1ccccc1
inactive: [8] 98 % of control | [9] 96 % of control | [10] 108 % of control

Cc1nc2cc(Cl)cc([N+](=O)[O-])c2nc1C
inactive: endpoint: mean survival time, dose: 100.0 mg/kg/injection, schedule: Q01DX001 (ip), vehicle: other 103 % of control | endpoint: mean survival time, dose: 200.0 mg/kg/injection, schedule: Q01DX001 (ip), vehicle: other 97 % of control | endpoint: mean survival time, dose: 400.0 mg/kg/injection, schedule: Q01DX001 (ip), vehicle: other 97 % of control

CC(=O)Nc1nnc(Cl)s1
inactive: endpoint: mean survival time, dose: 100.0 mg/kg/injection, schedule: Q04DX002 (ip), vehicle: saline 101 % of control | endpoint: mean survival time, dose: 200.0 mg/kg/injection, schedule: Q04DX002 (ip), vehicle: saline 97 % of control | endpoint: mean survival time, dose: 400.0 mg/kg/injection, schedule: Q04DX002 (ip), vehicle: saline 104 % of control

CC12CCC(=O)C=C1CCC1C2C(=O)CC2(C)C1CCC2(O)C(=O)Cn1ccc(=O)[nH]c1=O (stereo unspecified)
inactive: endpoint: mean survival time, dose: 12.5 mg/kg/injection, schedule: Q04DX003 (ip), vehicle: Klucel (hydroxypropylcellulose) (HPC) 91 % of control | endpoint: mean survival time, dose: 25.0 mg/kg/injection, schedule: Q04DX003 (ip), vehicle: Klucel (hydroxypropylcellulose) (HPC) 101 % of control | endpoint: mean survival time, dose: 50.0 mg/kg/injection, schedule: Q04DX003 (ip), vehicle: Klucel (hydroxypropylcellulose) (HPC) 98 % of control | [3] 96 % of control | [4] 98 % of control

CC(N)(CO)C(=O)O (stereo unspecified)
inactive: [8] 108 % of control | [9] 113 % of control | [10] 103 % of control

N#[N+]c1c([O-])[nH]c2ccccc12
inactive: endpoint: median survival time, dose: 50.0 mg/kg/injection, schedule: Q04DX002 (ip), vehicle: saline with Tween-80 110 % of control | endpoint: median survival time, dose: 100.0 mg/kg/injection, schedule: Q04DX002 (ip), vehicle: saline with Tween-80 110 % of control | endpoint: median survival time, dose: 200.0 mg/kg/injection, schedule: Q04DX002 (ip), vehicle: saline with Tween-80 120 % of control

CCOC(=O)N1C2CCC(C2)N1C(=O)OCC
inactive: [5] 100 % of control | [6] 100 % of control | [7] 87 % of control

CCOP(=O)(OCC)C1=C(P(=O)(OCC)OCC)C(F)(F)C1(F)F
inactive: endpoint: mean survival time, dose: 9.5 mg/kg/injection, schedule: Q01DX001 (ip), vehicle: other 97 % of control | endpoint: mean survival time, dose: 19.0 mg/kg/injection, schedule: Q01DX001 (ip), vehicle: other 97 % of control | endpoint: mean survival time, dose: 38.0 mg/kg/injection, schedule: Q01DX001 (ip), vehicle: other 91 % of control
